The text below walks through data of PMC5063506, “A Novel Class of Small Molecule Agonists with Preference for Human over Mouse TLR4 Activation” (PLoS ONE, 2016).

Assay [1] has as its system cotton rat PBMCs. The assay can be described thus: Cytokine gene expression in cotton rat PBMCs (QuantiGene Plex). Format: cell-based. The following applies: 1 μg/ml, 24 h. The procedure:
(§1) Splenocytes were isolated from naïve BALB/c mice by dissociating spleens with a GentleMACS (Miltenyi) instrument, then filtration through […] screens. For other species, blood was obtained through venipuncture or cardiac puncture into heparinized tubes, then diluted 1:1 with PBS or HBSS and layered onto Ficoll-Histopaque (GE Healthcare) for blood from healthy human volunteers and cynomolgus macaques, Lympholyte-Mammal (Cedarlane Labs) for New Zealand white rabbits, Sprague-Dawley rats, Hartley guinea pigs, cotton rats, and ferrets, followed by standard density centrifugation techniques. […]
(§2) PBMCs (human, cynomolgus macaque, guinea pig, ferret, rabbit, rat, and cotton rat) or splenocytes (mouse) were seeded onto 96-well flat bottom plates at 5 x 10^5 cells/well and stimulated with TLR4 agonists at 1 and 0.2 μg/ml for 24 h at 37°C. […] For human, cyno, mouse, and rat, cell-free SNs were analyzed via human, NHP, mouse, and rat MILLIPLEX kits. For GP, ferret, rabbit, and CR, cells were lysed by Millipore lysing buffer and snap frozen at -70 C until ready for analysis by Affymetrix QuantiGene 2.0 Plex kits. […] Signal was detected using a Bioplex 200 instrument (BioRad). […]
Fig 9 Species-specific activation of IL-6, TNF-α, and chemokine expression in primary cells. […] For human, cyno, mouse, and rat, SNs were analyzed via human, NHP, mouse, and rat MILLIPLEX kits. […]

The subject of assay [2] is hTLR4/MD2 KIKO mice. The assay can be described thus: In vivo serum cytokines in hTLR4/MD2 KIKO mice. Details: species or system mouse. The conditions noted are these: 50 μg IP, serum at 2 h and 6 h. From the text:
The humanized TLR4/MD-2 mice, described in detail in [15], express human TLR4 and human MD-2 from bacterial artificial chromosome transgenes that were bred to the mouse TLR4/MD-2 double-knockout (DKO) on a C57BL/6J background. Because the hMD-2 BAC transgene is integrated on the Y-chromosome, only male mice were used in the study. Generally, hMD-2 BAC+ males are bred to hTLR4 BAC+ females (both on DKO background) and male pups were screened for the presence of hTLR4 BAC. Double positives served as the fully humanized TLR4/MD-2 mice and hTLR4 BAC negative mice served as functional KO. Wild-type C57BL/6 mice were bred in parallel. All breeding was performed in an SPF facility at the University of Washington and all protocols were approved by the University of Washington IACUC. For in vivo cytokines, mice were injected intraperitoneally with 50 μg of either AZ618 or MPL in 0.2 ml PBS. Mice were bled from the retroorbital sinus 2 h after injection and terminal cardiocentesis was performed at 6 h for the second blood sample. Serum samples were analyzed via MILLIPLEX kits (EMD Millipore).
C57BL/6 mice (6–12 per group) were immunized IP with 50 μg MPL or AZ618 and then were bled at 2 h via retro-orbital route and at 6 h via cardiac puncture. Serum was analyzed by multiplex Millipore kits for cytokine content. […]

The subject of assay [3] is rat PBMCs. The assay can be described thus: Cytokine induction in rat PBMCs (rat MILLIPLEX). Format: cell-based, Sprague-Dawley rat. The conditions noted are these: 1 and 0.2 μg/ml, 24 h. Here is the method: as §1, §2
Fig 8 Secreted cytokine profile of rat PBMCs stimulated by AZ618. […] SNs were analyzed via rat MILLIPLEX kits. Data are expressed as the means of 3 rats at the 1 μg/ml dose of TLR4 agonist and are representative of 2 studies. […]

For `Cc1cc(C)cc(N(C(=O)c2cc(-c3ccccc3)n(-c3ccccc3)n2)C(C(=O)NC2CCCC2)c2ccc(CC(=O)O)cc2)c1` (stereo not drawn) [AZ618, 2-(4-(2-(cyclopentylamino)-1-(N-(3,5-dimethylphenyl)-1,5-diphenyl-1H-pyrazole-3-carboxamido)-2-oxoethyl)phenyl)acetic acid], the “activation of cotton rat PBMCs” value in assay [1] is on record as “able to activate”. The “serum cytokine induction in hTLR4/MD2 KIKO mice” value in assay [2] was “induced a very similar pattern of cytokines”. In assay [3], the “response in rat PBMCs (cytokine secretion)” value was “comparable to that induced by MPL”.
